Two molecules from ChEMBL document CHEMBL2311509, “Synthesis and antiproliferative evaluation of 3-phenylquinolinylchalcone derivatives against non-small cell lung cancers and breast cancers” (Eur J Med Chem, 2013) can be followed below.

For assay [1], the system named is MDA-MB-231. As to the kind of experiment: Growth inhibition of human MDA-MB-231 cells. The class given is functional.
The nature of assay [2]: Growth inhibition of human H1299 cells. The format is functional. The following applies: NCI-H1299.
Assay [3] can be described thus: Growth inhibition of human Hep3B cells. The format is functional, Hep 3B2.
Assay [4] relates to MDA-MB-231. As to the kind of experiment: Induction of apoptosis in human MDA-MB-231 cells assessed as caspase 3 activation at 0.1 to 1 uM after 24 hrs by immunoblot method. The format is functional, cell-based. (In western blotting, separated proteins are transferred to a membrane and probed.)
For assay [5], the system named is MDA-MB-231. As to the kind of experiment: Induction of apoptosis in human MDA-MB-231 cells assessed as PARP cleavage at 0.1 to 1 uM after 24 hrs by immunoblot method. The format is functional, cell-based.
The test system of assay [6] is MDA-MB-231. As to the kind of experiment: Induction of morphological changes in human MDA-MB-231 cells at 0.5 uM after 24 hrs by light microscopy. The class given is functional, cell-based.
Assay [7] relates to MDA-MB-231. As to the kind of experiment: Induction of cell cycle arrest in human MDA-MB-231 cells assessed as accumulation at G2/M phase at 1 uM after 24 hrs by flow cytometry (reference value: 22.1 +/- 3.1%). The class given is functional. On the technique in general: Flow cytometry measures light scatter and fluorescence of single cells or particles in a stream.
The subject of assay [8] is MDA-MB-231. The assay can be described thus: Induction of cell cycle arrest in human MDA-MB-231 cells assessed as accumulation at G2/M phase at 0.5 uM after 24 hrs by flow cytometry (reference value: 22.1 +/- 3.1%). The class given is functional.
In assay [9] the test system is MDA-MB-231. As to the kind of experiment: Induction of cell cycle arrest in human MDA-MB-231 cells assessed as accumulation at G2/M phase at 0.1 uM after 24 hrs by flow cytometry (reference value: 22.1 +/- 3.1%). The format is functional.
Assay [10] relates to MDA-MB-231. The assay can be described thus: Induction of cell cycle arrest in human MDA-MB-231 cells assessed as accumulation at S phase at 1 uM after 24 hrs by flow cytometry (reference value: 12.4 +/- 2.1%). The format is functional.
The test system of assay [11] is MDA-MB-231. As to the kind of experiment: Induction of cell cycle arrest in human MDA-MB-231 cells assessed as accumulation at S phase at 0.5 uM after 24 hrs by flow cytometry (reference value: 12.4 +/- 2.1%). The format is functional.
In assay [12] the test system is MDA-MB-231. As to the kind of experiment: Induction of cell cycle arrest in human MDA-MB-231 cells assessed as accumulation at S phase at 0.1 uM after 24 hrs by flow cytometry (reference value: 12.4 +/- 2.1%). The format is functional.
Assay [13] has as its system MDA-MB-231. The assay can be described thus: Induction of cell cycle arrest in human MDA-MB-231 cells assessed as accumulation at G1 phase at 1 uM after 24 hrs by flow cytometry (reference value: 63.1 +/- 2.7%). The class given is functional.
The test system of assay [14] is MDA-MB-231. The assay can be described thus: Induction of cell cycle arrest in human MDA-MB-231 cells assessed as accumulation at G1 phase at 0.5 uM after 24 hrs by flow cytometry (reference value: 63.1 +/- 2.7%). The class given is functional.
For assay [15], the system named is MDA-MB-231. As to the kind of experiment: Induction of cell cycle arrest in human MDA-MB-231 cells assessed as accumulation at G1 phase at 0.1 uM after 24 hrs by flow cytometry (reference value: 63.1 +/- 2.7%). The class given is functional.
The subject of assay [16] is MDA-MB-231. As to the kind of experiment: Induction of cell cycle arrest in human MDA-MB-231 cells assessed as accumulation at subG1 phase at 1 uM after 24 hrs by flow cytometry (reference value: 3.3 +/- 1.5%). The format is functional.
Assay [17] has as its system MDA-MB-231. As to the kind of experiment: Induction of cell cycle arrest in human MDA-MB-231 cells assessed as accumulation at subG1 phase at 0.5 uM after 24 hrs by flow cytometry (reference value: 3.3 +/- 1.5%). The format is functional.
The subject of assay [18] is MDA-MB-231. The assay can be described thus: Induction of cell cycle arrest in human MDA-MB-231 cells assessed as accumulation at subG1 phase at 0.1 uM after 24 hrs by flow cytometry (reference value: 3.3 +/- 1.5%). The class given is functional.
The next assay deals with H184B5F5/M10. The assay can be described thus: Antiproliferative activity against human H184B5F5/M10 cells at 0.1 to 5 uM after 12 to 48 hrs by XTT assay. The class given is functional, cell-based.
Assay [19] concerns MDA-MB-231. The assay can be described thus: Antiproliferative activity against human MDA-MB-231 cells at 0.1 to 5 uM by XTT assay. The class given is functional, cell-based. The following applies: TDE = time-dependent effect. (In general: Formazan colour is commonly taken as a measure of viable cells.)
For assay [20], the system named is MDA-MB-231. As to the kind of experiment: Antiproliferative activity against human MDA-MB-231 cells after 48 hrs by XTT assay. The format is functional, cell-based.
Assay [21] is described as follows: Antiproliferative activity against human H184B5F5/M10 cells after 72 hrs by XTT assay. The class given is functional, cell-based. The following applies: H184B5F5/M10, 72 h.
The test system of the next assay is SK-BR-3. As to the kind of experiment: Antiproliferative activity against human SKBR3 cells after 72 hrs by XTT assay. The format is functional, cell-based. The settings on record: SK-BR-3, 72 h.
Assay [22] has as its system MDA-MB-231. The assay can be described thus: Antiproliferative activity against human MDA-MB-231 cells after 72 hrs by XTT assay. The format is functional, cell-based. The following applies: MDA-MB-231, 72 h.
The test system of a further assay is MCF7. As to the kind of experiment: Antiproliferative activity against human MCF7 cells after 72 hrs by XTT assay. The format is functional, cell-based. The following applies: MCF7, 72 h.
In the next assay the test system is A549. The assay can be described thus: Antiproliferative activity against human A549 cells after 72 hrs by XTT assay. The settings on record: A549, 72 h. The class given is functional, cell-based.
A short description of assay [23]: Antiproliferative activity against human H460 cells after 72 hrs by XTT assay. The class given is functional, cell-based. The settings on record: NCI-H460, 72 h.
Assay [24] can be described thus: Antiproliferative activity against human H1299 cells after 72 hrs by XTT assay. The settings on record: NCI-H1299, 72 h. The format is functional, cell-based.

Activity calls are given as the source filed them. The calls are words filed in the database; no cut-off is given here.

The term GI50 denotes the concentration at which growth is held to half of that of the control. The low end stands for more potent growth inhibition, the high end for less potent growth inhibition. As for `Fc1ccc2nc(-c3ccc(OCCN4CCCCC4)cc3)c(-c3ccc(OCCN4CCCCC4)cc3)cc2c1`, the GI50 in the assay on MDA-MB-231 [1] was 720 nM; in assay [2], 1460 nM; in [3], 710 nM.

The IC50 is the concentration that gives 50% inhibition. As for `COc1ccc(-c2cc3ccccc3nc2/C=C/C(=O)c2ccc(Br)s2)cc1`, the Activity result was “Dose-dependent effect” in the assay with MDA-MB-231 [4]; “Dose-dependent effect” with MDA-MB-231 [5]; 30.1% in the assay with MDA-MB-231 [7]; 28.3% in the assay on MDA-MB-231 [8]; 25.7% with MDA-MB-231 [9]; 7.2% in the assay with MDA-MB-231 [10]. Further, the Activity with MDA-MB-231 [11] was 10.1%; in the assay with MDA-MB-231 [12] it was 13.1%; in the assay on MDA-MB-231 [13] it was 30.1%; with MDA-MB-231 [14], 39.6%; in the assay with MDA-MB-231 [15] it was 54.3%; with MDA-MB-231 [16], 33.4%. Further, the Activity with MDA-MB-231 [17] was 23.5%; in the assay on MDA-MB-231 [18], 8.1%; with MDA-MB-231 [19], “tde”; in the assay on MDA-MB-231 [20], “Dose-dependent effect”. In addition, in the assay with MDA-MB-231 [6], the outcome was Active. The result in the assay with H184B5F5/M10 was inactive. In addition, the IC50 in assay [21] is 9380 nM; in the assay with SK-BR-3, 520 nM; with MDA-MB-231 [22] it was less than 100 nM; in the assay with MCF7 it was 910 nM; in the assay on A549 it was 6250 nM; in [23] it was 5170 nM. The molecule further came in with a half-maximal inhibitory concentration (IC50) in assay [24] of 710 nM.
